The source of these data is publication PMC13011345, “Computational and experimental identification of potential neutralizing peptides derived from human ACE2 against SARS-CoV-2 infection” (Journal of Virology, 2026).

Ends that are not written are not given here.

For the assay, the system named is pseudotyped SARS-CoV-2 particle (VSV-SARS-CoV-2-S virus, Wuhan-Hu-1 spike) infecting BHK21-hACE2 cells. Conditions: 1 h.

AWDLGKGDFRIL [ACE348–359] came in with an IC50 of 31.2 nM.

The sequence HIQYDMAYAAQPFLLRNG [ACE378–395] registered a half-inhibitory concentration (IC50) of 3.8 nM.

On to LPNMTQGFWENSML [ACE320–333], for which inhibition was half-maximal at 43.9 nM (IC50).

As for QKLFNMLRLGKS [ACE552–563], the 50% inhibitory concentration (IC50) came to 12.5 nM.

In general, IC50 refers to the concentration that gives 50% inhibition. A higher IC50 goes with weaker potency in that assay.
